The values that follow come from US20080176857A1, “4-Piperazinnylthieno[2,3-d]Pyrimidine Compounds as Platelet Aggregation Inhibitors” (priority 2005, published 2008).

“And” between values parts separate entries of the source, which are not always exact repeats. Equal values may be shown once.

Assay [1] concerns the target T1, P2Y12 receptor (Homo sapiens, UniProt Q9H244). Put plainly: [33P]2MeS-ADP binding to washed human platelet membranes (Assay 1). Set-up: the P2Y12 receptor, which is found on the surface of platelets; tissue Interstate Blood bank, Memphis, Tenn; host or cells: washed human platelets from platelet rich plasma. How it is done:
1. Inhibition of [^33P]2MeS-ADP Binding to Washed Human Platelet Membranes. The ability of a test compound to bind to the P2Y12 receptor was evaluated in a platelet membrane binding assay. In this competitive binding assay, the test compound competed against a radiolabelled agonist for binding to the P2Y12 receptor, which is found on the surface of platelets. Inhibition of binding of the labeled material was measured and correlated to the amount and potency of the test compound. Data from this assay are presented in Table F. Platelet rich plasma (“PRP”) was obtained from the Interstate Blood bank, Memphis, Tenn. Platelet rich plasma was prepared from blood units collected in ACD ((prepared by (1) combining: 2.5 g sodium citrate (Sigma S-4641); 1.5 g citric acid (Sigma C-0706); and, 2.0 g dextrose (Sigma G-7528); (2) bringing pH to 4.5; and (3) adding water to bring volume to 100 mL) and using the light spin protocol; this protocol involves centrifugation at room temperature for approximately 20 minutes at speeds up to 160×g. Platelet rich plasma is supplied in units of approximately 200 ml. Each unit is distributed into four 50 mL polypropylene conical tubes for centrifugation. Blood from each donor is maintained separately.
The 50 mL tubes were centrifuged for 15 minutes at 1100 rpm in Sorvall RT6000D (with H1000B rotor). Internal centrifuge temperature was maintained at approximately room temperature (22-24° C.). This spin pelleted cellular components remaining from the PRP preparation.
The supernatant was decanted into fresh 50 mL tubes. To avoid carry over of cellular components following the room temperature centrifugation, approximately 5 mL of PRP was left in the tube and discarded. The tubes were capped and inverted 2-3 times and allowed to stand at room temperature for at least 15 minutes following inversion.
Optionally, a Coulter Counter may be used to count platelets from the resting samples during the resting phase. Normal human platelet counts are expected to range from 200,000 to 400,000 per μL of PRP supernatant.
The 50 mL tubes containing PRP supernatant were centrifuged for 15 minutes at 2300-2400 rpm to loosely pellet the platelets. The supernatant from this spin was decanted immediately into a clean cell culture bottle (Corning bottle) and saved in case further centrifugation was needed. The pellet of each tube was resuspended in 2-4 mL of Wash buffer (pH 6.5) (1 L prepared new daily—134 mM NaCl (Sigma S-5150); 3 mM KCl (Sigma P-9333); 1 mM CaCl2 (JT Baker 1311-01); 2 mM MgCl2 (Sigma M-2670); 5 mM glucose (EM 4074-2); 0.3 mM NaH2PO4 (Sigma S-9638)/12 mM NaHCO3 (JT Baker 3506-01); 5 mM HEPES pH 7.4 (Gibco 12379-012); 0.35% BSA (Sigma A-7906); 330 mg Heparin (bovine lung, Sigma H-4898); and 30 mL of ACD) by repeated gentle aspiration using disposable polypropylene sample pipettes.
Wash buffer (pH 6.5) was added to each tube to bring the volume to approximately 40 mL. Each tube was incubated for at least 15 minutes at 37° C.
The tubes were then centrifuged again for 15 minutes at 2300-2400 rpm to loosely pellet the platelets. The supernatant was decanted and discarded. The pellet was resuspended in 2-4 mL of Assay buffer (pH 7.4) (1 L volume—134 mM NaCl; 3 mM KCl; 1 mM CaCl2; 2 mM MgCl2; 5 mM glucose; 0.3 mM NaH2PO4/12 mM NaHCO3; 5 mM HEPES pH 7.4; and 0.35% BSA) by repeated aspiration using disposable polypropylene sample pipettes.
The pooled platelet preparation was counted using a Coulter Counter. […]

The target of assay [2] is T1, P2Y12 receptor. Put plainly: [33P]-2MeS-ADP binding to recombinant human P2Y12 membranes (Assay 3). More on the design: expressed in transfected cells; host or cells: HEK cells. The conditions noted are these: for IC50 / Ki: HEK cell membranes expressing human P2Y12, competition with 33P 2MeS-ADP; for inhibition at 10 µM / % Inhibition: 10 μM. An outline of the steps: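 Membranes from HEK cells transfected with human P2Y12, used in competitive binding against [33P]-2MeS-ADP in Tris/NaCl/EDTA buffer with 0.02% BSA. Seven-point 3-fold dilutions from 10 μM final, 1 h at room temperature, then filtration and scintillation counting. IC50 from four-parameter fit with Hill slope fixed at one, plate controls defining min/max.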

[3] abbreviates: at highest concentration tested.

T1 sequence (Q9H244 whole entry): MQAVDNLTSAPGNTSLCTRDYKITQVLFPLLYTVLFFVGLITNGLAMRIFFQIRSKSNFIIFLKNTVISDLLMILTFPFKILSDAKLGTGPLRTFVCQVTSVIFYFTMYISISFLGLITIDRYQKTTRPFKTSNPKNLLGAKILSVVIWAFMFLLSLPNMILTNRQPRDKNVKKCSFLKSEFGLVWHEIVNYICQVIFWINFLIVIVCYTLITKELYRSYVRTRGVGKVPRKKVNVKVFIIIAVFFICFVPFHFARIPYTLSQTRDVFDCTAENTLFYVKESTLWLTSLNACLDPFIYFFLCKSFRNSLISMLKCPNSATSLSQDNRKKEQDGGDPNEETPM

Regarding `CCc1cc2c(N3CCN(C(=O)Cc4ccccc4)CC3)nc(SCc3ccccc3)nc2s1` [Example 85, 2-(benzylthio)-6-ethyl-4-[4-(phenylacetyl)piperazin-1-yl]thieno[2,3-d]pyrimidine], on P2Y12 receptor [1] (at highest concentration tested, 10 μM), the inhibition at 10 µM was found to be 39.5%. On P2Y12 receptor [1] (washed human platelet membranes, competition with [33P]2MeS-ADP), this molecule displayed an IC50 of over 10000 nM.
For the molecule `CCc1cc2c(N3CCN(C(=O)C4COc5ccccc5O4)CC3)nc(SCC(=O)OC)nc2s1` (stereo not drawn) [Example 38, Methyl ({4-[4-(2,3-dihydro-1,4-benzodioxin-2-ylcarbonyl)piperazin-1-yl]-6-ethylthieno[2,3-d]pyrimidin-2-yl}thio)acetate], on P2Y12 receptor [2], the IC50 was found to be 600 nM and the Ki amounted to 400 nM. In addition, the inhibition at 10 µM at P2Y12 receptor [2] (setting [3]) is 77.2%.
`CCc1cc2c(N3CCN(C(=O)c4ccc(-c5ccccc5)cc4)CC3)nc(SCC(=O)OC)nc2s1` [Example 22, Methyl ({4-[4-(1,1′-biphenyl-4-ylcarbonyl)piperazin-1-yl]-6-ethylthieno[2,3-d]pyrimidin-2-yl}thio)acetate]: at P2Y12 receptor [2], the IC50 is 43 nM and 51 nM; the Ki is 25 nM and 28 nM. In addition, at P2Y12 receptor [2] (setting [3]), the “% Inhibition” value stood at 90.70% and the inhibition at 10 µM is 92.7%.
For `CCc1cc2c(N3CCN(C(=O)Cc4ccccc4)CC3)nc(SCCO)nc2s1` [Example 87, 2-({6-ethyl-4-[4-(phenylacetyl)piperazin-1-yl]thieno[2,3-d]pyrimidin-2-yl}thio)ethanol], at P2Y12 receptor [2], the IC50 is 570 nM and 590 nM and 200 nM and 320 nM; the Ki was 310 nM and 337 nM and 110 nM and 180 nM.
Regarding `CCc1cc2c(N3CCN(C(=O)CC(C)CC(C)(C)C)CC3)nc(SCC(=O)OC)nc2s1` (stereo not drawn) [Example 39, Methyl ({6-ethyl-4-[4-(3,5,5-trimethylhexanoyl)piperazin-1-yl]thieno[2,3-d]pyrimidin-2-yl}thio)acetate], at P2Y12 receptor [2], the IC50 is over 10000 nM and the Ki is over 6700 nM. For the same molecule, at P2Y12 receptor [2] (setting [3]), the inhibition at 10 µM is 43.1%.
As for `CCc1cc2c(N3CCN(C(=O)Cc4ccccc4)CC3)nc(SCCN(C)C)nc2s1` [Example 88, N-[2-({6-ethyl-4-[4-(phenylacetyl)piperazin-1-yl]thieno[2,3-d]pyrimidin-2-yl}thio)ethyl]-N,N-dimethylamine], on P2Y12 receptor [2], the half-inhibitory concentration (IC50) was 1680 nM and 1480 nM and 640 nM and 370 nM and 1200 nM; the Ki is 913 nM and 848 nM and 370 nM and 210 nM and 700 nM. In addition, at P2Y12 receptor [2] (setting [3]), the “% Inhibition” value is 80.30% and 84.54% and 89.14% and 82.41%; the inhibition at 10 µM is 94.1%.
For `CCc1cc2c(N3CCN(C(=O)Cc4ccccc4)CC3)nc(SCC(=O)O)nc2s1` [Example 83, ({6-ethyl-4-[4-(phenylacetyl)piperazin-1-yl]thieno[2,3-d]pyrimidin-2-yl}thio)acetic acid], on P2Y12 receptor [2], the IC50 is 230 nM and 940 nM and 430 nM and 470 nM; the Ki is 127 nM and 540 nM and 240 nM and 270 nM. Moreover, on P2Y12 receptor [2] (setting [3]), the “% Inhibition” value was 90.75% and 91.85% and 86.17%; the inhibition at 10 µM came out at 92%.
For `CCc1cc2c(N3CCN(C(=O)CCC(=O)OC)CC3)nc(SCC(=O)OC)nc2s1` [Example 42, Methyl 4-(4-{6-ethyl-2-[(2-methoxy-2-oxoethyl)thio]thieno[2,3-d]pyrimidin-4-yl}piperazin-1-yl)-4-oxobutanoate], at P2Y12 receptor [2], the IC50 was 5740 nM and the Ki was found to be 3830 nM. Besides, on P2Y12 receptor [2] (setting [3]), the inhibition at 10 µM was 52.3%.
On the same counts, the results for `CCc1cc2c(N3CCN(C(=O)c4ccc(-c5ccccc5)cc4)CC3)nc(SCCNC(C)=O)nc2s1` [Example 27, N-[2-({4-[4-(1,1′-Biphenyl-4-ylcarbonyl)piperazin-1-yl]-6-ethylthieno[2,3-d]pyrimidin-2-yl}thio)ethyl]acetamide] are 100 nM, 58 nM and 96.5%.
On the same counts, the results for `CCc1cc2c(N3CCN(C(=O)c4csc(-c5ccccc5)n4)CC3)nc(SCC(=O)OC)nc2s1` [Example 69, Methyl [(6-ethyl-4-{4-[(2-phenyl-1,3-thiazol-4-yl)carbonyl]piperazin-1-yl}thieno[2,3-d]pyrimidin-2-yl)thio]acetate] are 87.8 nM, 53 nM and 56.8%.
Take `CCc1cc2c(N3CCN(C(=O)Cc4ccccc4)CC3)nc(SC(C)C(=O)NCC(=O)O)nc2s1` (stereo not drawn) [Example 11, N-[2-({6-Ethyl-4-[4-(phenylacetyl)piperazin-1-yl]thieno[2,3-d]pyrimidin-2-yl}thio)propanoyl]glycine]: on P2Y12 receptor [2], the IC50 is 330 nM and 230 nM and 270 nM and 328 nM; the Ki was 190 nM and 130 nM and 160 nM and 189 nM. For the same molecule, the inhibition at 1 µM at P2Y12 receptor [2] (at highest concentration tested, 1 μM) was found to be 81%. Also, at P2Y12 receptor [2] (setting [3]), the “% Inhibition” value was 92.50% and 88.81%; the inhibition at 10 µM is 90.5%.
`C#CCCCCC(=O)N1CCN(c2nc(SCC(=O)OC)nc3sc(CC)cc23)CC1` [Example 36, Methyl {[6-ethyl-4-(4-hept-6-ynoylpiperazin-1-yl)thieno[2,3-d]pyrimidin-2-yl]thio}acetate]: at P2Y12 receptor [2], the IC50 was 220 nM and the Ki was 150 nM. For the same molecule, the inhibition at 10 µM on P2Y12 receptor [2] (setting [3]) stood at 97.6%.
In the same order, the values of `CCc1cc2c(N3CCN(C(=O)c4ccc(C(N)=O)cc4)CC3)nc(SCC(=O)OC)nc2s1` [Example 79, Methyl [(4-{4-[4-(aminocarbonyl)benzoyl]piperazin-1-yl}-6-ethylthieno[2,3-d]pyrimidin-2-yl)thio]acetate] are 8700 nM, 5050 nM and 47.7%.
On the same counts, the results for `CCc1cc2c(N3CCN(C(=O)c4ccc(C(=O)OC)cc4)CC3)nc(SCC(=O)OC)nc2s1` [Example 80, Methyl 4-[(4-{6-ethyl-2-[(2-methoxy-2-oxoethyl)thio]thieno[2,3-d]pyrimidin-4-yl}piperazin-1-yl)carbonyl]benzoate] are 3780 nM, 2450 nM and 60%.
On the same counts, the results for `CCc1cc2c(N3CCN(C(=O)CCC4CCCC4)CC3)nc(SCC(=O)OC)nc2s1` [Example 40, Methyl ({4-[4-(3-cyclopentylpropanoyl)piperazin-1-yl]-6-ethylthieno[2,3-d]pyrimidin-2-yl}thio)acetate] are 4150 nM, 2760 nM and 59%.
`CCc1cc2c(N3CCN(C(=O)c4ccc(-c5ccccc5)cc4)CC3)nc(SCC(N)=O)nc2s1` [Example 31, 2-({4-[4-(1,1′-Biphenyl-4-ylcarbonyl)piperazin-1-yl]-6-ethylthieno[2,3-d]pyrimidin-2-yl}thio)acetamide]: on P2Y12 receptor [2], the IC50 was 31 nM and the Ki is 18 nM. Further, at P2Y12 receptor [2] (setting [3]), the inhibition at 10 µM worked out at 99.7%.
On the same counts, the results for `C#CCCCC(=O)N1CCN(c2nc(SCC(=O)OC)nc3sc(CC)cc23)CC1` [Example 35, Methyl {[6-ethyl-4-(4-hex-5-ynoylpiperazin-1-yl)thieno[2,3-d]pyrimidin-2-yl]thio}acetate] are over 10000 nM, over 6700 nM and -4.55%.

As usually defined, the inhibition is the relative decrease from the control value, in per cent. A word on the IC50: it is the concentration at which inhibition is half-maximal. One may read the Ki as the equilibrium dissociation constant of an inhibitor or competing ligand from its target. One may read the % Inhibition as the share of the control response that was lost under treatment.
